One data set has as its target Hb-S (Homo sapiens, UniProt P68871+P69905, E7V). In words: Oxygen-Affinity Assay (whole Hb-S blood, tonometer). Format: cell-based. More on the design: key: ΔP50 in mm Hg (oxygen tension at 50% saturation, control vs treated). To be noted: 37° C., difference control vs treated, negative = toward normal Hb-S oxygen affinity, oxygen partial pressure plotted in mm Hg. As to the method: The compounds described herein were tested in an "Oxygen-Affinity Assay" to measure the ability of the compound to influence the Hb-S oxygen affinity. There is a relationship between oxygen binding and Hb-S gelation and thus a measure of oxygen affinity is an index of Hb-S aggregation within the red blood cell. Hemoglobin S polymers decrease the overall oxygen affinity. Thus a return to normal of Hb-S oxygen affinity is a measure of decreased gelation. For measurements of oxygen equilibria whole Hb-S blood was equilibrated in a tonometer at 37° C. and measurements were made in the presence of a 5 millimolar (mM) or 10 mM concentration of the test compound. The whole blood pH, oxygen tension, and blood PO2 were measured. The percentage of oxygen saturation was plotted against the partial pressure of oxygen (mm Hg). The P50 value (oxygen tension at 50% saturation) was determined for each control and treated whole blood sample and the difference (Δ P50) between the control and treated whole blood sample noted. As used herein, a negative Δ P50 represents a change toward a normal Hb-S oxygen affinity and thus is a measure of the test compound's ability to inhibit the sickling of sickle erythrocytes.

For data set [1] the following is noted: normal adults, single dosages 25 to 250 milligrams, cited from earlier work.
For data set [2] the following is noted: compound and its pharmaceutically-acceptable salts; cited from earlier work.
For data set [3] the following is noted: compound and its pharmaceutically-acceptable salts; cited from earlier work. The source holds these as a separate data set.
For data set [4] the following is noted: compound and its pharmaceutically-acceptable salts; cited from earlier work. This is another data set of the same source.
The conditions of data set [5]: compound and its pharmaceutically-acceptable salts; cited from earlier work. This is another data set of the same source.

Each structure is given as a SMILES string.

For `Cl.Clc1ccc(OCC2=NCCN2)cc1Cl` [Example 2, 2-((3,4-dichlorophenoxy)methyl)-2-imidazoline hydrochloride], on Hb-S (5 mM test compound), the “Δ P50” value is listed as -8. For the same compound, at Hb-S (10 mM test compound), the “Δ P50” value is on record as -8.0. For the same compound, in data set [1] (at high dose level), the blood pressure entry is on record as “increased blood pressure” and the heart rate result was “decreased heart rate”. In data set [1], the ill effects result is “no ill effects other than a "tingling sensation" on the skin reported by some of the subjects”.
As for `Clc1ccc(OCC2=NCCN2)cc1Cl` [fenmetozole, 2-((3,4-Dichlorophenoxy)methyl)-2-imidazoline], in data set [2], the antidepressant activity result is recorded as “antidepressant”. For the same compound, the barbiturate antagonist activity result in data set [3] was “barbiturate antagonist activity”. Also, the alcohol antagonist activity result in data set [4] is “alcohol antagonist activity”. Besides, the “activity against minimal brain dysfunction in children” value in data set [5] is given as “activity against minimal brain dysfunction in children”.
Turning to `Cl.Cl.Nc1ccc(SCC2=NCCN2)cc1Cl` [Example 4, 2-(((4-Amino-3-chlorophenyl)thio)methyl)-2-imidazoline Dihydrochloride], the “Δ P50” value at Hb-S (5 mM test compound) is -9; at Hb-S (10 mM test compound), -10.0.
In the case of `Cl.Oc1ccc(SCC2=NCCN2)cc1Cl` [Example 3, 2-Chloro-4-(((2-imidazolin-2-yl)methyl)thio)-phenol Hydrochloride], the “Δ P50” value at Hb-S (5 mM test compound) was 0; at Hb-S (10 mM test compound), -13.0.
In the same order, the values of `Cl.Clc1ccc(NCC2=NCCN2)cc1Cl` [Example 1, 2-((3,4-dichloroanilino)methyl)-2-imidazoline hydrochloride] are -9 and -12.6.

Values taken from patent US4344958A, “Method of inhibiting sickling of sickle erythrocytes using substituted-2-imidazolines” (priority 1980, dated 1982).
